Patent US6686361B2, “R-6-hydroxy-buspirone” (Bristol-Myers Squibb Company, priority 2001, dated 2004)

Tests used:
D2(h) = D2(h) (Homo sapiens, UniProt P14416); experiment: Receptor binding, D2(h)
human 5-HT1A receptor [1] = biological target: T1, human 5-HT1A receptor (Homo sapiens, UniProt P08908); experiment: 5-HT1A receptor binding assay; details: human 5-HT1A receptor expressed in HEK293 cells, 3H-8-OH-DPAT
T1 construct: expressed in transfected cells; host or cells: HEK293
T1 sequence (P08908 1-422): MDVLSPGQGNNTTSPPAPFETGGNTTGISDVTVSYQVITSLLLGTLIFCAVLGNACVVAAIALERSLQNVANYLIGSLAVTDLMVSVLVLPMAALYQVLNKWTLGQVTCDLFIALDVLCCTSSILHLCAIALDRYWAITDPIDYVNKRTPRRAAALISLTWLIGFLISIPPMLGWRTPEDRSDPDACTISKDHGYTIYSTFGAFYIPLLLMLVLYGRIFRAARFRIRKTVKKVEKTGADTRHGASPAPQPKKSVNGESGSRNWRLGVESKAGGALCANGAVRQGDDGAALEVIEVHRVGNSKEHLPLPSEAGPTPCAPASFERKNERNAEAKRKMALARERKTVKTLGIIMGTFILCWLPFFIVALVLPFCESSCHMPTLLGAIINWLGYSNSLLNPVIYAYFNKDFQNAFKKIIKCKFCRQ
Protocol: Membranes are prepared for binding using the human 5-HT1 A receptor expressed in HEK293 cells. Cells are collected and ruptured using a dounce homogenizer. The cells are spun at 18000×g for 10 minutes and the pellet is resuspended in assay buffer, frozen in liquid nitrogen and kept at −80° C. until the day of the assay.
A total of 30 ug protein is used per well. The assay is carried out in 96-deep-well plates. The assay buffer is 50 mM HEPES containing 2.5 mM MgCl2 and 2 mM EGTA. The membrane preparation is incubated at 25° C. for 60 minutes with 0.1 nM to 1000 nM test compound and 1 nM 3H-8-OH-DPAT. […] serotonin serves as blocking agent to determine non-specific binding. The reaction is terminated by the addition of 1 ml of ice cold 50 mM HEPES buffer and rapid filtration through a Brandel Cell Harvester using Whatman GF/B filters. The filter pads are counted in an LKB Trilux liquid scintillation counter. IC50 values are determined using non-linear regression by Excel-fit.

[2] = system: rat pup ultrasonic vocalizations; experiment: Rat pup isolation-induced ultrasonic vocalization test; type: in vivo; details: rat pups; for anxiolytic activity (ultrasonic vocalizations): 0.3 and 1 mg/kg s.c.
Protocol: Harlan Sprague-Dawley rat pups (male and female) were housed in polycarbonate cages with the dam until 9-11 days old. Thirty minutes before testing, pups were removed from the dam, placed into a new cage with a small amount of home bedding and brought into the lab and placed under a light to maintain body temperature at 37° C. Pups were then weighed, sexed, marked and returned to the litter group until behavioral assessment. Testing took place in a Plexiglas recording chamber that contained a metal plate maintained at (18-20° C.) with a 5×5 cm grid drawn on the plate. A microphone was suspended 10 cm above the plate to record ultrasonic vocalizations. Ultrasonic calls were recorded using the Noldus UltraVox system providing online analysis of the frequency and duration of calls. The number of grid cells entered by the pup was also collected by visual scoring. […] Immediately following the collection of the baseline measures, pups were injected with vehicle or drug subcutaneously at the nape of the neck and returned to its littermates. Thirty minutes later, pups were retested on each of the dependent measures (vocalization and grid cell crossings) to assess drug effects. Unless otherwise specified, each pup was used only once. Baseline differences and percent change from baseline for the frequency of ultrasonic vocalizations and grid cell crossings were analyzed using a one-way ANOVA. Bonferroni/Dunn post hoc comparisons were performed to assess the acute drug effects with vehicle control. Log-probit analysis was used to estimate the dose (milligrams per kilogram) of each agonist predicted to inhibit isolation-induced ultrasonic vocalizations by 50% (ID50). All comparison were made with an experimental type I error rate (α) set at 0.05.
Doses for each drug were administered in an irregular order across several litters. R-6-hydroxy-buspirone and racemic 6-hydroxy-buspirone were dissolved in physiological saline (0.9% NaCl; vehicle). All injections were administered subcutaneously in a volume of 10 ml/kg. Doses of the drug refer to weight of the salt.

[3] = system: rat pup ultrasonic vocalizations; details: functional testing, background; cited from earlier work
human 5-HT1A receptor [4] = biological target: T1, human 5-HT1A receptor; details: preclinical studies, background; cited from earlier work

D2(h), sequence (P14416 whole entry): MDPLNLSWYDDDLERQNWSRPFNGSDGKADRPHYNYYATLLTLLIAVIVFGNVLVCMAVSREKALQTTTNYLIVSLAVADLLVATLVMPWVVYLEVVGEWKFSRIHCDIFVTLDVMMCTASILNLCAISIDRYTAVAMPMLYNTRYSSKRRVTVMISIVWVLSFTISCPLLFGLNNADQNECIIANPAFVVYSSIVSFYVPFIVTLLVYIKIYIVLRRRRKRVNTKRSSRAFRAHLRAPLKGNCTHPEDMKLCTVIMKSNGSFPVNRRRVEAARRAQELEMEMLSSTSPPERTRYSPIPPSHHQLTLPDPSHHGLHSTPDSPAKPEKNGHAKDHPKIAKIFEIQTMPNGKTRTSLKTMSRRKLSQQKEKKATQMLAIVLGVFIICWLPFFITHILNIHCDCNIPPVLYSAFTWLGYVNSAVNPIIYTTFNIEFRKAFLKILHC

O=C1CC2(CCCC2)[C@H](O)C(=O)N1CCCCN1CCN(c2ncccn2)CC1 [S-6-hydroxy-buspirone]
Ki (D2(h)): 1300 nM | Ki (human 5-HT1A receptor [1]): 24 nM

O=C1CC2(CCCC2)[C@@H](O)C(=O)N1CCCCN1CCN(c2ncccn2)CC1 [R-6-hydroxy-buspirone]
Ki (D2(h)): 2870 nM | Ki (human 5-HT1A receptor [1]): 14 nM | anxiolytic activity (ultrasonic vocalizations) [2]: Statistically significant anxiolytic activity

O=C1CC2(CCCC2)C(O)C(=O)N1CCCCN1CCN(c2ncccn2)CC1 (racemic) [6-hydroxy-buspirone]
anxiolytic response in the rat pup ultrasonic vocalization test [3]: dose-dependent anxiolytic response | affinity for the human 5-HT1A receptor (human 5-HT1A receptor [4]): strong affinity | anxiolytic activity (ultrasonic vocalizations) [2]: Statistically significant anxiolytic activity | animal movement, measured by crossing grid boundary lines ([2]; compared to animals dosed with the single enantiomer): appeared to be reduced
